Data published in patent publication US5789448A, “Benzoylethylene derivative” (Mitsubishi Chemical Corporation, priority 1994, dated 1998).
Like-named read-outs stand apart in the source and are kept apart here. One block for each molecule: values may come before it.

What was measured:
[1] = test system: KB cells of human rhinopharyngeal cancer; assay: Cancer cell growth inhibiting activity (KB cells, MTT); type: cell-based; conditions: read-out: Cancer cell growth inhibiting activity (IC50)
Procedure: (§1) In order to evaluate the tyrosine kinase inhibiting activity and the cancer cell growth inhibiting activity of the compound of the present invention, tests were carried out in a partially purified human EGF ([…]) receptor tyrosine kinase activity measuring system and a cell culture system using human cancerous cells.
(Cancer cell growth inhibiting activity)
KB cells of human rhinopharyngeal cancer retain EGF receptor on cellular surfaces thereof excessively.
By using these KB cells, investigation of the effect of a sample on growth of cultured cancer cells was carried out by the following method.
2.5×10^3 cells/well of KB cells were sowed on a 96 well dish and cultured in a DMEM:F12 (1:1) medium containing 10% FCS, 50 U/ml penicillin and 50 μg/ml of streptomycin, under conditions of 37° C. and 5% carbonic acid gas for 1 day. Thereafter, a sample dissolved in DMSO was added to the medium (DMSO final concentration: <0.1%) and cultured under the above conditions for 3 days. The sample and the medium were replaced every 24 hours.
The count of the number of living cells was determined by calorimetric quantitation at two wavelengths of 540 nm and 660 nm using a MTT reagent by referring to the measurement method described in Michael C.
At the same time, the count of the number of living cells when the sample was not added was also measured, and the value was defined as b.
The cell growth inhibiting rate was determined by the following formula.
Inhibiting rate (%)=(b-a)/b×100

[2] = molecular target: T1, human EGF (epithelial cell growth factor) receptor tyrosine kinase (Homo sapiens, UniProt P00533); assay: Tyrosine kinase inhibiting activity (EGF receptor partially purified from A431 cell membrane fraction, RR-SRC peptide substrate, gamma-32P-ATP); type: biochemical; conditions: 10 μM ATP, 1% DMSO, in ice for 30 minutes
T1 construct: to obtain an A431 cell membrane fraction, and this fraction was provided for measurement as a partially purified EGF receptor; endogenous in cells; host or cells: A431 (human squamous cell carcinoma), membrane fraction
T1 sequence (P00533 25-1210): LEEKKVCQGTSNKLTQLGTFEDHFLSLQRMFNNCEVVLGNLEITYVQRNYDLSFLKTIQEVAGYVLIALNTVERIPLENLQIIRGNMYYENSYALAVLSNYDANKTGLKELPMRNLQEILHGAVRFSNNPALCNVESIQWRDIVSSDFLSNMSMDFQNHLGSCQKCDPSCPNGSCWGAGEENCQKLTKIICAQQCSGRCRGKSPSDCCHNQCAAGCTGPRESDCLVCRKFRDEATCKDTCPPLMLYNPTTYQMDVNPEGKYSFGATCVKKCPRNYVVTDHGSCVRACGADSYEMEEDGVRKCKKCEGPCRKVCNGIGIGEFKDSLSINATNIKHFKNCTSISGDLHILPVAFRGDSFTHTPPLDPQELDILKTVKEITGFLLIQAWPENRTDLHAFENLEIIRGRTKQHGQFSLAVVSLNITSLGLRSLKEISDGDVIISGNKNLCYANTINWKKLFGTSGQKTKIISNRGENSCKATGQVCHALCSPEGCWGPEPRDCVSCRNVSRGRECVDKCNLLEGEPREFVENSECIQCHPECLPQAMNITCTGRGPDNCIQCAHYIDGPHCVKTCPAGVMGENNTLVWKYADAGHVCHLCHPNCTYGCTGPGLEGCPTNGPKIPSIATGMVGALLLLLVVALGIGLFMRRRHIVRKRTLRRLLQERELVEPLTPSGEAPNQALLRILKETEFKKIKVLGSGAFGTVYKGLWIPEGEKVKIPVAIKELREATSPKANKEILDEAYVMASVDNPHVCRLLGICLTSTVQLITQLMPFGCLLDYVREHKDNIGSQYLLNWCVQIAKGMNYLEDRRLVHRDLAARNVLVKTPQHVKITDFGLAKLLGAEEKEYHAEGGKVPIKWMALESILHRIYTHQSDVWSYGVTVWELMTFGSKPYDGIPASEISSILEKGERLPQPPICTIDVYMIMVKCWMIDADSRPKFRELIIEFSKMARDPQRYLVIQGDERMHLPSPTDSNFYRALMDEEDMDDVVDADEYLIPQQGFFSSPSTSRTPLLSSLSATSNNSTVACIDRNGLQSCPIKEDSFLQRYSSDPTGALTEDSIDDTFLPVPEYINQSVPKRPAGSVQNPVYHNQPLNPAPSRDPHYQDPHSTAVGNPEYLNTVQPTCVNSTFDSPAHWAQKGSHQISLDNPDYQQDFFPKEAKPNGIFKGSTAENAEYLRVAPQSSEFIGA
Procedure: as §1
(Tyrosine kinase inhibiting activity)
The tyrosine kinase inhibiting activity was measured by using an EGF receptor which was partially purified from an A431 cell line derived from human squamous cell carcinoma and by improving the tyrosine kinase activity measurement method described in Linda J. Pike et al., Proceedings of the National Academy of Sciences of the U.S.A. 79, 1443 (1982).
The detailed method is as described below.
A431 cells were cultured in a Dulbecco modified Eagle's medium (DMEM) containing 10% fetal calf serum (FCS), at 37° C. under 5% carbonic acid gas. The cells were homogenized in a solution containing 10 mM N-2-hydroxyethylpiperazino-N'-2-ethanesulfonic acid (Hepes) buffer (pH 7.4), 0.25M saccharose and 0.1 mM EDTA and then centrifuged at 3000 g for 5 minutes. Further, a supernatant thereof was centrifuged at 10000× g for 30 minutes to obtain an A431 cell membrane fraction, and this fraction was provided for measurement as a partially purified EGF receptor which was an enzyme source.
To a reaction mixture of the above-mentioned A431 cell membrane fraction (10 to 15 μg), a 30 mM Hepes buffer (pH 7.7), 2 mM MnCl2, 50 μM Na3 VO4 and a sample dissolved in dimethylsulfoxide (DMSO) (final concentration: 1% DMSO) was added 100 ng of EGF, and then 75 μg of a synthetic substrate RR-SRC peptide (a peptide described in Sequence No. 1) and 10 μM gamma-^32 P-adenosine triphosphoric acid (37 to 42 KBq) were added thereto to start a reaction.
The volume at that time was 60 μl.
The reaction was carried out in ice for 30 minutes, and the reaction was terminated by adding 6 μl of 10 mg/ml bovine serum albumin and 25 μl of 20% trichloroacetic acid. The reaction mixture was left to stand in ice for 30 minutes.
Next, after the mixture was centrifuged at 5000× g for 2 minutes, 40 μl of the supernatant was sampled and adsorbed to P81 phosphocellulose paper.
This was dipped in a 30% acetic acid solution for 15 minutes to fix, washed by dipping in a 15% acetic acid solution for 15 minutes (washing was repeated four times) and measured the count of ^32 P attached to P81 phosphocellulose paper by a liquid scintillation counter, and this value was defined as A.
At the same time, the counts of a reaction in which the sample tested was not added and a reaction in which both the sample and EGF were not added were measured and were defined as B and C, respectively.
The tyrosine kinase inhibiting rate is determined by the following formula.
Inhibiting rate (%)=100-{(B-A)/(B-C)}×100
From the inhibiting rate obtained by changing the addition concentration of the sample, an IC50 value (50% inhibiting concentration) was calculated.

[3] = KB cells, 3 days, sample and medium replaced every 24 hours, MTT

Compound: COC(=O)C=CC(=O)c1ccc(OC)cc1 [compound 29]
IC50 ([1]; KB): 3900 nM | IC50 [2]: 9400 nM

Compound: COc1ccc(C(=O)C=CCN2CCCCC2)cc1OC [compound 97]
IC50 ([1]; KB): 2600 nM | IC50 [2]: 8200 nM

Compound: CCN(CC)C(C)(C)C(=CC(=O)c1ccc(OC)c(OC)c1)S(=O)(=O)c1ccc([N+](=O)[O-])cc1 [compound 350]
IC50 ([1]; KB): 570 nM | IC50 [2]: 1400 nM

Compound: COc1cc(C(=O)C=C(C(C)(C)N2CCCCC2)S(=O)(=O)c2ccccc2)cc2c1OCO2 [compound 290]
IC50 ([1]; KB): 830 nM | IC50 [2]: 5000 nM

Compound: CCN(CC)C(C)(C)C(=CC(=O)c1ccc(OC)c(OC)c1)S(=O)(=O)c1ccc(C)cc1 [compound 293]
IC50 ([1]; KB): 230 nM | IC50 [2]: 1100 nM

Compound: CC(C(=O)Nc1ccccc1)=C(C)C(=O)c1ccccc1 [compound 253]
IC50 ([1]; KB): 420 nM | IC50 [2]: 38000 nM

Compound: COc1ccc(C(=O)C=C(CN(C(C)C)C(C)C)S(=O)(=O)c2ccccc2)cc1OC [compound 335]
IC50 ([1]; KB): 3100 nM | IC50 [2]: 27900 nM

IC50 [1, 3]: 2000 nM | IC50 [2]: 5800 nM
Compound: CCN(CC)C(C)(C)C(C#N)=CC(=O)c1ccc(OC)c(OC)c1 [compound 349]

Compound: COC(=O)C=CC(=O)c1ccc(OC)c(OC)c1 [compound 26]
IC50 ([1]; KB): 1900 nM | IC50 [2]: 860 nM

IC50 [1, 3]: 5000 nM | IC50 [2]: 27300 nM
Compound: COc1ccc(C(=O)C=C(C(C)(C)N2CCC(C)CC2)S(=O)(=O)c2ccccc2)cc1OC [compound 327]

Compound: CCN(CC)C(C)(C)C(=CC(=O)c1ccc(OC)c(OC)c1)S(=O)(=O)c1cccs1 [compound 352]
IC50 ([1]; KB): 630 nM | IC50 [2]: 470 nM

Compound: COc1ccc(C(=O)C=CC#N)cc1OC [compound 5]
IC50 ([1]; KB): 620 nM | IC50 [2]: 340 nM

Compound: CCN(CC)C(C)(C)C(=CC(=O)c1ccc(OC)c(OC)c1)S(=O)(=O)c1ccccc1 [compound 278]
IC50 ([1]; KB): 950 nM | IC50 [2]: 1700 nM
